# Data reported in ChEMBL document CHEMBL5360655, “Design, Synthesis, and Biological Evaluation of Novel P2X7 Receptor Antagonists for the Treatment of Septic Acute Kidney Injury” (J Med Chem, 2023).
# pIC50: −log10 of the molar value. Calls of active or inactive are those of the source. The calls are words filed in the database; no cut-off is given here.
# Columns and labels:
# P2X purinoceptor 7 [1] = target: T1, P2X purinoceptor 7 (Homo sapiens, UniProt Q99572); assay: Antagonist activity at human P2X7 receptor
# T1 sequence (Q99572 whole entry): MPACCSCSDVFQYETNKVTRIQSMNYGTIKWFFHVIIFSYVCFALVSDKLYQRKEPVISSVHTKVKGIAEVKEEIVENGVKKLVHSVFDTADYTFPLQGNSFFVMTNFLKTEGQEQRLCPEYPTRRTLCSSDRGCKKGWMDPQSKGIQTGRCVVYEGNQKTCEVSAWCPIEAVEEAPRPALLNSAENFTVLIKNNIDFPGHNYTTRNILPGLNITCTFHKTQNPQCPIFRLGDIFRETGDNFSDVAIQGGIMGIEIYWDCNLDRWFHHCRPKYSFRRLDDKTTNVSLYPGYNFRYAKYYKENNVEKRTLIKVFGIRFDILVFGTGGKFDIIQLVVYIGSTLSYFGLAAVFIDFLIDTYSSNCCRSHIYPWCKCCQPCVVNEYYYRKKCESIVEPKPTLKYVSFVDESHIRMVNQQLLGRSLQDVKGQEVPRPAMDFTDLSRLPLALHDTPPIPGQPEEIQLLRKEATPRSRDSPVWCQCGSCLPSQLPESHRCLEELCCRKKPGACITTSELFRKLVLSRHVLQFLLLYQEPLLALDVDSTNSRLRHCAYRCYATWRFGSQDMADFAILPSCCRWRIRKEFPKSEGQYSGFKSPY
# P2X purinoceptor 7 [2] = target: T2, P2X purinoceptor 7 (Mus musculus, UniProt Q9Z1M0); assay: Antagonist activity at mouse P2X7 receptor
# T2 sequence (Q9Z1M0 whole entry): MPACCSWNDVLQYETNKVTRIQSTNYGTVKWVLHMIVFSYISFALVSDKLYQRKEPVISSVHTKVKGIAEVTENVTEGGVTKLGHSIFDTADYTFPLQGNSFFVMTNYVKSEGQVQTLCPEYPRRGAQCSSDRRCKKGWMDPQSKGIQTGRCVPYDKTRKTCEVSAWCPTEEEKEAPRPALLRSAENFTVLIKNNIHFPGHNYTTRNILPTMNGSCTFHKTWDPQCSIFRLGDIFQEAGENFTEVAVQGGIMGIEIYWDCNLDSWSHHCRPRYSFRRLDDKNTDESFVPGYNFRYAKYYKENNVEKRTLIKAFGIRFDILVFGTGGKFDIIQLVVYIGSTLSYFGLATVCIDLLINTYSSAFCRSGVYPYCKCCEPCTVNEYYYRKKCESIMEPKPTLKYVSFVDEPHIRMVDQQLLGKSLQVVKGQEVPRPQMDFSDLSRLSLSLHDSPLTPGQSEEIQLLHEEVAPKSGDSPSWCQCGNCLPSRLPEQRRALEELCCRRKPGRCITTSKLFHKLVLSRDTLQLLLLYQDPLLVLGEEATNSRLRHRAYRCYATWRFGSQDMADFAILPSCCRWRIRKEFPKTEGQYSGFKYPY
# [3] = target: T3, P2X purinoceptor 7 (Homo sapiens) (UniProt Q99572); assay: Antagonist activity at human P2X7 receptor expressed in HEK293 cells assessed as inhibition of ATP-induced receptor pore formation at 1 uM by propidium iodide dye uptake based fluorescence analysis; type: cell-based; settings: filed as antagonist
# T3 sequence (whole entry): T1 sequence (Q99572 whole entry)
# [4] = target: T4, P2X purinoceptor 7 (Mus musculus) (UniProt Q9Z1M0); assay: Antagonist activity at mouse P2X7 receptor expressed in HEK293 cells assessed as inhibition of ATP-induced receptor pore formation at 1 uM by propidium iodide dye uptake based fluorescence analysis; type: cell-based; settings: filed as antagonist
# T4 sequence (whole entry): T2 sequence (Q9Z1M0 whole entry)
# [5] = target: T3, P2X purinoceptor 7 (Homo sapiens); assay: Antagonist activity at human P2X7 receptor expressed in HEK293 cells assessed as inhibition of ATP-induced receptor pore formation at 200 nM by propidium iodide dye uptake based fluorescence analysis; type: cell-based
# [6] = target: T4, P2X purinoceptor 7 (Mus musculus); assay: Antagonist activity at mouse P2X7 receptor expressed in HEK293 cells assessed as inhibition of ATP-induced receptor pore formation at 200 nM by propidium iodide dye uptake based fluorescence analysis; type: cell-based; settings: filed as antagonist
# P2X purinoceptor 7 [7] = target: T1, P2X purinoceptor 7; assay: Antagonist activity at human P2X7 receptor expressed in HEK293 cells assessed as inhibition of ATP-induced receptor pore formation by propidium iodide dye uptake based fluorescence analysis; type: cell-based
# P2X purinoceptor 7 [8] = target: T2, P2X purinoceptor 7; assay: Antagonist activity at mouse P2X7 receptor expressed in HEK293 cells assessed as inhibition of ATP-induced receptor pore formation by propidium iodide dye uptake based fluorescence analysis; type: cell-based
# [9] = Intrinsic clearance in human liver microsomes; type: ADME, Microsome; settings: read-out: CLH
# [10] = Half life in human liver microsomes; type: ADME, Microsome
# [11] = Intrinsic clearance in mouse liver microsomes; type: ADME, Microsome; settings: read-out: CLH
# [12] = Half life in mouse liver microsomes; type: ADME, Microsome
# HEK293 [13] = assay: Cytotoxicity against human HEK293 cells transfected with human P2X7 receptor assessed as effect on cell viability at 1 to 4 uM incubated for 2 hrs by CCK8 assay; type: toxicity, cell-based; settings: hek293, 2 h, dose 1-4 µM
# HEK293 [14] = assay: Cytotoxicity against human HEK293 cells transfected with mouse P2X7 receptor assessed as effect on cell viability at 1 to 4 uM incubated for 2 hrs by CCK8 assay; type: toxicity, cell-based; settings: hek293, 2 h, dose 1-4 µM
# P2X purinoceptor 7 [15] = target: T1, P2X purinoceptor 7; assay: Antagonist activity at P2X7 receptor in human THP-1 cells assessed as inhibition of ATP-induced IL-1beta secretion pretreated with LPS for 3 hrs followed by incubation with compound for 40 mins followed by treatment with ATP for 1 hr by ELISA; type: cell-based
# THP-1 = assay: Cytotoxicity against human THP-1 cells assessed as effect on cell viability at 1 to 4 uM incubated for 2 hrs by CCK8 assay; type: toxicity, cell-based; settings: thp-1, 2 h, dose 1-4 µM
# [16] = AUC(0 to t) in BALB/c mouse at 10 mg/kg, iv measured for 24 hrs by LC-MS/MS analysis; type: ADME, organism-based; parameters: time 24 hrs, dose 10 mg/kg, route iv; settings: in vivo
# [17] = AUC(0 to t) in BALB/c mouse at 10 mg/kg, po measured for 24 hrs by LC-MS/MS analysis; type: ADME, organism-based; parameters: time 24 hrs, dose 10 mg/kg, route po; settings: in vivo
# [18] = Clearance in BALB/c mouse at 10 mg/kg, iv measured for 24 hrs by LC-MS/MS analysis; type: ADME, organism-based; settings: in vivo
# [19] = Clearance in BALB/c mouse at 10 mg/kg, po measured for 24 hrs by LC-MS/MS analysis; type: ADME, organism-based; settings: in vivo
# [20] = Cmax in BALB/c mouse at 10 mg/kg, iv measured for 24 hrs by LC-MS/MS analysis; type: ADME, organism-based; parameters: time 24 hrs, dose 10 mg/kg, route iv; settings: in vivo
# [21] = Cmax in BALB/c mouse at 10 mg/kg, po measured for 24 hrs by LC-MS/MS analysis; type: ADME, organism-based; parameters: time 24 hrs, dose 10 mg/kg, route po; settings: in vivo
# [22] = Half life in BALB/c mouse at 10 mg/kg, iv measured for 24 hrs by LC-MS/MS analysis; type: ADME, organism-based; settings: in vivo
# [23] = Half life in BALB/c mouse at 10 mg/kg, po measured for 24 hrs by LC-MS/MS analysis; type: ADME, organism-based; settings: in vivo
# [24] = Tmax in BALB/c mouse at 10 mg/kg, iv measured for 24 hrs by LC-MS/MS analysis; type: ADME, organism-based; settings: in vivo
# [25] = Tmax in BALB/c mouse at 10 mg/kg, po measured for 24 hrs by LC-MS/MS analysis; type: ADME, organism-based; settings: in vivo
# [26] = Oral bioavailability in BALB/c mouse at 10 mg/kg measured for 24 hrs by LC-MS/MS analysis; type: ADME, organism-based; settings: in vivo
# [27] = AUC(0 to t) in BALB/c mouse at 10 mg/kg, ip measured for 24 hrs by LC-MS/MS analysis; type: ADME, organism-based; parameters: dose 10 mg/kg, time 24 hrs, route ip; settings: in vivo
# [28] = Clearance in BALB/c mouse at 10 mg/kg, ip measured for 24 hrs by LC-MS/MS analysis; type: ADME, organism-based; settings: in vivo
# [29] = Cmax in BALB/c mouse at 10 mg/kg, ip measured for 24 hrs by LC-MS/MS analysis; type: ADME, organism-based; parameters: dose 10 mg/kg, time 24 hrs, route ip; settings: in vivo
# [30] = Half life in BALB/c mouse at 10 mg/kg, ip measured for 24 hrs by LC-MS/MS analysis; type: ADME, organism-based; settings: in vivo
# [31] = Tmax in BALB/c mouse at 10 mg/kg, ip measured for 24 hrs by LC-MS/MS analysis; type: ADME, organism-based; settings: in vivo
# Mus musculus [32] = assay: Reno-protective activity against LPS-induced acute kidney injury C57BL/6J mouse model assessed as decrease in serum […] level at 10 mg/kg, ip administered twice at 30 mins prior to LPS challenge and 8 hrs post-LPS challenge and measured at 16 hrs post-LPS challenge; type: functional, organism-based; settings: time 16.5 hrs
# Mus musculus [33] = assay: Reno-protective activity against LPS-induced acute kidney injury C57BL/6J mouse model assessed as decrease in BUN level at 10 mg/kg, ip administered twice at 30 mins prior to LPS challenge and 8 hrs post-LPS challenge and measured at 16 hrs post-LPS challenge; type: functional, organism-based; settings: time 16.5 hrs
structure (smiles),measurement,setting,value
CC1=C(C(c2ccc(Cl)cc2)n2cc(COCc3ccco3)nn2)C(=O)c2ccccc2C1=O (stereo unspecified),pIC50,P2X purinoceptor 7 [1],6.99
O=C1C=C(n2cc(CCCl)nn2)C(=O)c2c(O)cccc21,pIC50,P2X purinoceptor 7 [1],5.96
same,pIC50,P2X purinoceptor 7 [2],5.82
O=C(NCc1ccc(Cl)cc1Cl)C1CCC(=O)N1c1ccoc1 (stereo unspecified),pIC50,P2X purinoceptor 7 [1],6.70
CS(=O)(=O)c1ccc(-c2ncc(C(=O)NCc3cn(-c4cc(Cl)ccn4)nn3)s2)cc1,inhibition,[3],53.6%
same,inhibition,[4],100%
same,inhibition,[5],38.2%
same,inhibition,[6],101%
same,pIC50,P2X purinoceptor 7 [7],6.53
same,pIC50,P2X purinoceptor 7 [8],7.57
same,CLint scaled,[9],< 12 mL/min/kg
same,half-life,[10],> 2 h
same,CLint scaled,[11],< 12 mL/min/kg
same,half-life,[12],> 2 h
same,Activity,HEK293 [13],Non-Toxic
same,Activity,HEK293 [14],Non-Toxic
same,pIC50,P2X purinoceptor 7 [15],6.20
same,Activity,THP-1,Non-Toxic
same,AUC(0-t) at 24 h,[16],77900 ng·h/mL
same,AUC(0-t) at 24 h,[17],29100 ng·h/mL
same,clearance,[18],2 mL/min/kg
same,CL/F,[19],5.83 mL/min/kg
same,Cmax,[20],25800 ng/mL
same,Cmax,[21],6500 ng/mL
same,half-life,[22],4.94 h
same,half-life,[23],2.1 h
same,Tmax,[24],4.8 min
same,Tmax,[25],2 h
same,bioavailability,[26],37.3%
same,AUC(0-t) at 24 h,[27],12000 ng·h/mL
same,CL/F,[28],13.5 mL/min/kg
same,Cmax,[29],1470 ng/mL
same,half-life,[30],3.98 h
same,Tmax,[31],4.67 h
same,Activity,Mus musculus [32],Active
same,Activity,Mus musculus [33],Active
